Numbers after ± are expanded uncertainties.
Experiments:
[1] = Crystal; DTA
[2] = Molar enthalpy of transition or fusion; conditions: DSC

| SMILES | Normal melting temperature [1] | Molar enthalpy of transition or fusion ([2]; Crystal) | Molar enthalpy of transition or fusion ([2]; Crystal 2) |
| --- | --- | --- | --- |
| CCCCCCCCCCCCCCOC(=O)OCCCCCCCCCCCCCC [ditetradecyl carbonate] | 35.00 ± 6 °C | 22.6 ± 1.41 kcal/mol | – |
| CCCCCCCCCCCCOC(=O)OCCCCCCCCCCCC [didodecyl carbonate] | 21.00 ± 6 °C | 16.6 ± 1.05 kcal/mol | – |
| CCCCCCCC/C=C\CCCCCCCCOC(=O)OCCCCCCCC/C=C\CCCCCCCC [dioleyl carbonate] | -4.00 ± 6 °C | 13.5 ± 0.813 kcal/mol | – |
| CCCCCCCCCCCCCCCCCCO [1-octadecanol] | 54.00 ± 5 °C | 16.2 ± 1.03 kcal/mol | – |
| CCCCCCCCCCOC(=O)OCCCCCCCCCC [didecyl carbonate] | -1.00 ± 6 °C | 11.9 ± 0.741 kcal/mol | – |
| CCCCCCCCCCCCO [dodecan-1-ol] | 23.00 ± 5 °C | 8.33 ± 0.526 kcal/mol | – |
| CCCCCCCCCCO [decan-1-ol] | 3.00 ± 5 °C | 7.79 ± 0.502 kcal/mol | – |
| CCCCCCCCCCCCCCO [1-tetradecanol] | 36.00 ± 5 °C | 12.3 ± 0.765 kcal/mol | – |
| CCCCCCCCCCCCCCCCO [1-hexadecanol] | 48.00 ± 5 °C | – | 13.1 ± 0.813 kcal/mol |
| CCCCCCCCCCCCCCCCOC(=O)OCCCCCCCCCCCCCCCC [dihexadecyl carbonate] | 47.00 ± 6 °C | 23.7 ± 1.46 kcal/mol | – |
| CCCCCCCCCCCCCCCCCCOC(=O)OCCCCCCCCCCCCCCCCCC [dioctadecyl carbonate] | 50.00 ± 6 °C | 24.3 ± 1.48 kcal/mol | – |
| CCCCCCCC/C=C\CCCCCCCCO [(Z)-9-octadecen-1-ol] | -1.00 ± 5 °C | 8.41 ± 0.502 kcal/mol | – |

From the NIST ThermoML archive (doi:10.1016/j.tca.2017.10.003)
